For series [1], the target named is T1, Cocaine esterase (Homo sapiens, UniProt O00748).
T1 sequence (O00748 whole entry): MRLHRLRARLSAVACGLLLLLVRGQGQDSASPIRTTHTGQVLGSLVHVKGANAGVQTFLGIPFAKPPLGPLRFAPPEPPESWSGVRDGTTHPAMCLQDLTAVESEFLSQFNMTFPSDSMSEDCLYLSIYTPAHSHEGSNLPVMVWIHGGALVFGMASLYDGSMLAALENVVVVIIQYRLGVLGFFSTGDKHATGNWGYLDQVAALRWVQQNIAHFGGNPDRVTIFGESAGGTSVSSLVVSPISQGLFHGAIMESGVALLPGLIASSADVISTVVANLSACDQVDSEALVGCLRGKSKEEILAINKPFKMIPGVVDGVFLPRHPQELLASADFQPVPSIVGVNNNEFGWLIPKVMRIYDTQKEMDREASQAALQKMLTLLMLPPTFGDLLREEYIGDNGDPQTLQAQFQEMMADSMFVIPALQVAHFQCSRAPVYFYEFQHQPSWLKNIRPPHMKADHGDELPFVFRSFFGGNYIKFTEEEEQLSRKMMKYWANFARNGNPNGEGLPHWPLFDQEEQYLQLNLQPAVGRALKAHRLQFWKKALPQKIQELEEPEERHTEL
As to the kind of experiment: Intrinsic clearance assessed as ratio of Vmax to Km for human recombinant CES2. It is filed as ADME. As to conditions: recombinant enzyme.

The target in series [2] is T2, CES2 (cocaine esterase) (Homo sapiens, UniProt O00748).
T2 sequence (O00748 whole entry): T1 sequence (O00748 whole entry)
The experiment in a line: Drug metabolism assessed as CES2-mediated compound hydrolysis in human liver homogenates at 50 uM. It is filed as ADME, tissue-based. Conditions: read-out: Drug metabolism.

For a further series, the target named is T3, Liver carboxylesterase 1 (Homo sapiens, UniProt P23141).
T3 sequence (P23141 whole entry): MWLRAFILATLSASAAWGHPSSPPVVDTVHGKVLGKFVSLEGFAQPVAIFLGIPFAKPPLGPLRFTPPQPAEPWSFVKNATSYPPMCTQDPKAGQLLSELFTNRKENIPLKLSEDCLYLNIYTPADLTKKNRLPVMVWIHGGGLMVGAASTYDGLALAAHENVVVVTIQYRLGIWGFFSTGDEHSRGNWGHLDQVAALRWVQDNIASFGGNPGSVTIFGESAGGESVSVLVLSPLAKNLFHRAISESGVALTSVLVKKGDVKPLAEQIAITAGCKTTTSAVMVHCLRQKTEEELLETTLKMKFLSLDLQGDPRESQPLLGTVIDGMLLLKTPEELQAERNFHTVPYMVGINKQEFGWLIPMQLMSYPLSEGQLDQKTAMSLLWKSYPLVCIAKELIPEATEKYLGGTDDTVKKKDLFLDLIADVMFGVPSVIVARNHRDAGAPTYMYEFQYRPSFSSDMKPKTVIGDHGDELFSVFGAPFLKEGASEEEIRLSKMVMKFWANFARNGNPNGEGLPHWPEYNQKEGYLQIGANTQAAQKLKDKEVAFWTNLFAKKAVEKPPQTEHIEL
The experiment in a line: Drug metabolism assessed as human recombinant CES1-mediated compound hydrolysis at 5 uM. It is filed as ADME. Conditions: recombinant enzyme.

In series [3] the target is T2, CES2 (cocaine esterase). The experiment in a line: Drug metabolism assessed as CES2-mediated compound hydrolysis in human liver homogenates at 200 uM. It is filed as ADME, tissue-based. As to conditions: read-out: Drug metabolism.
Series [4] has as its target T2, CES2 (cocaine esterase). As to the kind of experiment: Drug metabolism assessed as CES2-mediated compound hydrolysis in human liver homogenates at 5 uM. It is filed as ADME, tissue-based. Conditions: read-out: Drug metabolism.
Series [5] concerns the target T4, AADAC (arylacetamide deacetylase) (Homo sapiens, UniProt P22760).
T4 sequence (P22760 whole entry): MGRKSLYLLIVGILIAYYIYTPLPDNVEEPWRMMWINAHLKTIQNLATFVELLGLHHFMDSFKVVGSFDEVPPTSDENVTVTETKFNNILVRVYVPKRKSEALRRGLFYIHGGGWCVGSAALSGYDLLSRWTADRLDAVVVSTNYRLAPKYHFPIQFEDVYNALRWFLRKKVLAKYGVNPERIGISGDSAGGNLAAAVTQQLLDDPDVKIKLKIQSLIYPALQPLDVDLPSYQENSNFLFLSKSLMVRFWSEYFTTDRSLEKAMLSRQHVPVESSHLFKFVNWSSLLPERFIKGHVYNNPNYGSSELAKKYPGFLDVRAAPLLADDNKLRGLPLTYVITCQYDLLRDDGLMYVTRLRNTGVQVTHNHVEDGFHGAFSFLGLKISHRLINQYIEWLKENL
The experiment in a line: Drug metabolism assessed as AADAC-mediated compound hydrolysis in human liver homogenates at 50 uM. It is filed as ADME, tissue-based. Conditions: read-out: Drug metabolism.

The target of series [6] is T4, AADAC (arylacetamide deacetylase). As to the kind of experiment: Drug metabolism assessed as AADAC-mediated compound hydrolysis in human liver homogenates at 5 to 200 uM. It is filed as ADME, tissue-based. Conditions: read-out: Drug metabolism.
In series [7] the target is T1, Cocaine esterase. The experiment in a line: Drug metabolism assessed as CES2-mediated compound hydrolysis in human liver homogenates at 5 to 200 uM. As to conditions: tissue homogenate. It is filed as ADME, tissue-based.
In series [8] the target is T1, Cocaine esterase. As to the kind of experiment: Drug metabolism assessed as human recombinant CES2-mediated compound hydrolysis at 200 uM. It is filed as ADME. As to conditions: recombinant enzyme.
For series [9], the target named is T4, AADAC (arylacetamide deacetylase). As to the kind of experiment: Drug metabolism assessed as loperamide-mediated inhibition of human recombinant AADAC-mediated compound hydrolysis expressed in SF21 cells measured as enzyme activity at 5 uM relative to control. It is filed as ADME. Details: scale not given: the % may be the effect or the level left. As to conditions: with loperamide (concentration not clearly stated), read-out: Activity.

Series [10] has the same target. As to the kind of experiment: Drug metabolism assessed as AADAC-mediated compound hydrolysis in human liver homogenates at 200 uM. It is filed as ADME, tissue-based. As to conditions: read-out: Drug metabolism.
The target of series [11] is T1, Cocaine esterase. As to the kind of experiment: Drug metabolism assessed as loperamide-mediated inhibition of CES2-mediated compound hydrolysis in human liver cytosol at 5 uM relative to control. It is filed as ADME, tissue-based. Details: scale not given: the % may be the effect or the level left.
Series [12] deals with T5, Arylacetamide deacetylase (Homo sapiens, UniProt P22760).
T5 sequence (P22760 whole entry): T4 sequence (P22760 whole entry)
As to the kind of experiment: Drug metabolism assessed as human recombinant AADAC-mediated compound hydrolysis expressed in SF21 cells at 50 uM. It is filed as ADME. Conditions: sf21, 50 µM.

Series [13] has as its target T1, Cocaine esterase. As to the kind of experiment: Drug metabolism assessed as loperamide-mediated inhibition of CES2-mediated compound hydrolysis in human liver microsomes at 5 uM relative to control. It is filed as ADME. Further details: scale not given: the % may be the effect or the level left.
In series [14] the target is T5, Arylacetamide deacetylase. As to the kind of experiment: Drug metabolism assessed as human recombinant AADAC-mediated compound hydrolysis at 200 uM. It is filed as ADME.
Series [15] concerns the target T1, Cocaine esterase. As to the kind of experiment: Drug metabolism assessed as human recombinant CES2-mediated compound hydrolysis at 5 uM. It is filed as ADME. As to conditions: recombinant enzyme.
Series [16] deals with T2, CES2 (cocaine esterase). The experiment in a line: Drug metabolism assessed as loperamide-mediated inhibition of human recombinant CES2-mediated compound hydrolysis measured as enzyme activity at 5 uM relative to control. Further details: scale not given: the % may be the effect or the level left. It is filed as ADME. Conditions: recombinant CES2, with loperamide (concentration not clearly stated), read-out: Activity.

The target in series [17] is T4, AADAC (arylacetamide deacetylase). As to the kind of experiment: Drug metabolism assessed as AADAC-mediated compound hydrolysis in human liver homogenates at 5 uM. It is filed as ADME, tissue-based. Conditions: read-out: Drug metabolism.
For series [18], the target named is T1, Cocaine esterase. As to the kind of experiment: Drug metabolism assessed as human recombinant CES2-mediated compound hydrolysis at 50 uM. It is filed as ADME. Conditions: recombinant enzyme.
Series [19] addresses T5, Arylacetamide deacetylase. The experiment in a line: Drug metabolism assessed as human recombinant AADAC-mediated compound hydrolysis at 5 uM. It is filed as ADME.
Series [20] concerns the target T1, Cocaine esterase. The experiment in a line: Drug metabolism assessed as loperamide-mediated inhibition of CES2-mediated compound hydrolysis in human jejunum microsomes at 5 uM relative to control. Details: scale not given: the % may be the effect or the level left. It is filed as ADME.
Series [21] addresses T1, Cocaine esterase. The experiment in a line: Inhibition of human recombinant CES2 assessed as compound hydrolysis.
In series [22] the target is T1, Cocaine esterase. As to the kind of experiment: Drug metabolism assessed as human recombinant CES2-mediated compound hydrolysis at 2 uM. It is filed as ADME. Conditions: recombinant enzyme.

Results on two compounds are retold here after ChEMBL document CHEMBL3526158, “Contributions of arylacetamide deacetylase and carboxylesterase 2 to flutamide hydrolysis in human liver” (Drug Metab Dispos, 2012).

Structures are written as SMILES.

One may read the Ki as a dissociation constant, usually derived from enzyme kinetics or from competition with a known ligand.

In the case of `CC(C)C(=O)Nc1ccc([N+](=O)[O-])c(C(F)(F)F)c1` [FLUTAMIDE], the Ratio on Cocaine esterase [1] was 4.2 µL/min/mg. Also, the figures for the metabolised at 50 µM (at CES2 (cocaine esterase) [2]; in [5]) were 47% and 53%, respectively. The Drug metabolism entry on Liver carboxylesterase 1 is “metabolite_not_detected”; on Cocaine esterase [7] it was 170.4%; at Cocaine esterase [8] it was 13.5 pmol/min/mg; in [12] it was 87.6 pmol/min/mg; in series [14], 389 pmol/min/mg; on Cocaine esterase [15], 16 pmol/min/mg. Moreover, the Drug metabolism stood at 38.9 pmol/min/mg on Cocaine esterase [18] and 3.1 pmol/min/mg in series [19]. Besides, the metabolised at 200 µM was determined as 10.6% on CES2 (cocaine esterase) [3] and 89.4% in series [10]. Also, the metabolised at 5 µM on CES2 (cocaine esterase) [4] stood at 88.3%; in series [17] it was 11.7%. Also, the metabolised at up to 200 µM in [6] amounted to 79.6%. For the same compound, the results for the activity at 5 µM (in series [9]; at CES2 (cocaine esterase) [16]) were 74.7% and 7.7%, respectively. The Activity at Cocaine esterase [11] turned out to be 15.7%; at Cocaine esterase [13] it was 22.9%; at Cocaine esterase [20] it was 18.6%. Also, the Ki on Cocaine esterase [21] worked out at 2.3 µM.

For the compound `CO[C@H]1/C=C/O[C@@]2(C)Oc3c(C)c(O)c4c(O)c(c(/C=N/N5CCN(C)CC5)c(O)c4c3C2=O)NC(=O)/C(C)=C\C=C\[C@H](C)[C@H](O)[C@@H](C)[C@@H](O)[C@@H](C)[C@H](OC(C)=O)[C@@H]1C` [RIFAMPIN], the Drug metabolism was 2.99 pmol/min/mg at Cocaine esterase [22] and 41.77 pmol/min/mg in series [12].
